{"source": "patent US8097423B2", "about": "“MN/CA IX and breast cancer therapy” (Institute of Virology, priority 2008, dated 2012)", "origin": "cited, not measured here", "key": {"[1]": {"conditions": "weak basic drug"}, "T2-4 N0-1 breast cancer": {"test_system": "T2-4 N0-1 breast cancer", "conditions": "breast cancer patients, primary systemic treatment, four cycles before surgery; no significant difference between arms"}, "[2]": {"conditions": "Phase I and II clinical trials"}}, "data": [{"molecule": "CC/C(=C(\\c1ccccc1)c1ccc(OCCN(C)C)cc1)c1ccccc1", "note": "[Tamoxifen, tamoxifen]", "values": [{"measurement": "pKa", "setting": "[1]", "result": 8.8}]}, {"molecule": "COc1cccc2c1C(=O)c1c(O)c3c(c(O)c1C2=O)C[C@@](O)(C(=O)CO)C[C@@H]3O[C@H]1C[C@H](N)[C@@H](O)[C@H](C)O1", "note": "[epirubicin]", "values": [{"measurement": "treatment responses", "setting": "T2-4 N0-1 breast cancer", "result": 76, "unit": "%"}]}, {"molecule": "Rencarex®: an MN-specific drug", "values": [{"measurement": "tolerability / drug-related side effects", "setting": "[2]", "result": "well-tolerated, with no serious drug-related side effects"}]}]}
